Experimental data published in PMC6895180 (Nature Communications, 2019).
Values joined by “and” are separate entries in the source; they are usually repeats but may differ in a detail not shown here. Equal entries are not always repeated. Where two headings read alike, the source gives them in different places.

Experiments:
[1] = biological target: P2 transporter (TbAT1) (Trypanosoma brucei brucei, UniProt Q9Y0I0); test: cell-based; conditions: for Ki: P2 transporter Ki
Protocol: Non-specific association of radiolabel with the cell pellet was determined using an identical incubation in the presence of saturating (1 mM) unlabelled adenosine.

[2] = system: T. brucei Squib 427; test: microbe, parasite or virus in culture; format: cell-based, Trypanosoma brucei brucei; conditions: for EC50: Trypanosoma brucei
[3] = system: T. brucei BSF s427 wildtype cells; test: Growth assays of T. brucei (trypanocidal/trypanostatic effect); format: cell-based, Trypanosoma brucei
Protocol: Growth assays of T. brucei
To test the effect of the novel adenosine analogues on the growth of T. brucei BSF, s427 wildtype cells were seeded at 1×10^5 cells mL-1 in 5 mL of HMI-9 medium with 10% FBS and treated with compounds […]
cells were also incubated in drug-free medium under the same conditions. 2 μM of 2’-deoxycoformycin were added to all cultures to avoid any potential effect of serum adenosine deaminase on the activity of test compounds and cordycepin.1
Cells were manually counted in Neubauer chambers at 0, 2, 4, 6, 8, 12, 24, 36 and 48 h after addition of […]
the drugs. […]
After 6 and 12 h after addition of drugs, approximately 2×10^6 cells were harvested from each group and applied to glass slides pre-treated with poly-L-lysine, left to settle for 5 min and fixed with 4% formaldehyde for 4 min. The formaldehyde was neutralised by addition of 100 mM glycine (20 min).
Cells were washed once with PBS and blocked for 1 h with 1% BSA/0.2% Tween-20 in PBS. Cells were […]

Sequence of P2 transporter (TbAT1) (Q9Y0I0 entry or part of it): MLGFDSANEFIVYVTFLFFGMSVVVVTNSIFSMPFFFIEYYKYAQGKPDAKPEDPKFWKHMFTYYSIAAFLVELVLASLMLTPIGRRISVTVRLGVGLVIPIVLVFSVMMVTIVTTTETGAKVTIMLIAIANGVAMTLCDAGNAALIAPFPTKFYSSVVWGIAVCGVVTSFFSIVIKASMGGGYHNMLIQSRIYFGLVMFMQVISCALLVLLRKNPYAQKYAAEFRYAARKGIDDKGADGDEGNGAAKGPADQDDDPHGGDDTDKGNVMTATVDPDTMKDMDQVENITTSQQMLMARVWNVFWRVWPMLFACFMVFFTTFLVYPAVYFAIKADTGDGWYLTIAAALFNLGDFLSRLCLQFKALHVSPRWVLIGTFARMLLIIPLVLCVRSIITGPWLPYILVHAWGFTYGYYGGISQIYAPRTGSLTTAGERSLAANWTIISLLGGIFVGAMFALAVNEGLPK

Nc1ncnc2c1c(Br)cn2[C@@H]1O[C@H](CO)C[C@H]1O [Compound 10, 3’-deoxy-7-Br-tubercidin]
P2 transporter ΔG^0 ([1]; Gibbs free energy from −RT ln(Ki)): -8.58 kcal/mol
IC50 ([1]; P2 transporter IC50, single experiments, [L] 0.033 or 0.1 per experiment): 620 nM and 790 nM and 250 nM
Ki ([1]; AVG, source data): 500 nM
Ki ([1]; inhibition of [3H]adenosine uptake, mean ± SEM, n = 3): 502 ± 140 nM
Ki ([1]; single experiments, Cheng–Prusoff from IC50): 520 nM and 740 nM and 240 nM
P2 transporter δ(ΔG^0) ([1]; in comparison to adenosine): -0.024 kcal/mol
EC50 ([2]; Alamar blue cell viability assay, mean and SEM, read-out: T. b. brucei EC50): 1.3 ± 0.3 nM
EC50 ([2]; source data, read-out: T. brucei brucei EC50, Average): 1.29 nM
SI (MRC/T.b. brucei) ([2]; selectivity index): 11,462
AVG of cells/mL ([3]; 2xEC50, 2 h, experiment 1): 128750 cells/mL
Cells/mL ([3]; 2xEC50, 2 h, experiment 1): 137500 Cells/mL and 120000 Cells/mL
Counts ([3]; 2xEC50, 2 h, experiment 1): 55 and 48
AVG of cells/mL ([3]; 2xEC50, 2 h, experiment 2): 145000 cells/mL
Cells/mL ([3]; 2xEC50, 2 h, experiment 2): 147500 Cells/mL and 142500 Cells/mL
Counts ([3]; 2xEC50, 2 h, experiment 2): 59 and 57
AVG of cells/mL ([3]; 2xEC50, 4 h, experiment 1): 143750 cells/mL
Cells/mL ([3]; 2xEC50, 4 h, experiment 1): 162500 Cells/mL and 125000 Cells/mL
Counts ([3]; 2xEC50, 4 h, experiment 1): 50 and 65
AVG of cells/mL ([3]; 2xEC50, 4 h, experiment 2): 148750 cells/mL
Cells/mL ([3]; 2xEC50, 4 h, experiment 2): 160000 Cells/mL and 137500 Cells/mL
Counts ([3]; 2xEC50, 4 h, experiment 2): 55 and 64
AVG of cells/mL ([3]; 2xEC50, 6 h, experiment 1): 172500 cells/mL
Cells/mL ([3]; 2xEC50, 6 h, experiment 1): 177500 Cells/mL and 167500 Cells/mL
Counts ([3]; 2xEC50, 6 h, experiment 1): 71 and 67
AVG of cells/mL ([3]; 2xEC50, 6 h, experiment 2): 203750 cells/mL
Cells/mL ([3]; 2xEC50, 6 h, experiment 2): 192500 Cells/mL and 215000 Cells/mL
Counts ([3]; 2xEC50, 6 h, experiment 2): 77 and 86
AVG of cells/mL ([3]; 2xEC50, 8 h, experiment 1): 183750 cells/mL
Cells/mL ([3]; 2xEC50, 8 h, experiment 1): 177500 Cells/mL and 190000 Cells/mL
Counts ([3]; 2xEC50, 8 h, experiment 1): 71 and 76
AVG of cells/mL ([3]; 2xEC50, 8 h, experiment 2): 206250 cells/mL
Cells/mL ([3]; 2xEC50, 8 h, experiment 2): 215000 Cells/mL and 197500 Cells/mL
Counts ([3]; 2xEC50, 8 h, experiment 2): 86 and 79
AVG of cells/mL ([3]; 2xEC50, 12 h, experiment 1): 163750 cells/mL
Cells/mL ([3]; 2xEC50, 12 h, experiment 1): 195000 Cells/mL and 132500 Cells/mL
Counts ([3]; 2xEC50, 12 h, experiment 1): 78 and 53
AVG of cells/mL ([3]; 2xEC50, 12 h, experiment 2): 143750 cells/mL
Cells/mL ([3]; 2xEC50, 12 h, experiment 2): 160000 Cells/mL and 127500 Cells/mL
Counts ([3]; 2xEC50, 12 h, experiment 2): 64 and 51
AVG of cells/mL ([3]; 2xEC50, 24 h, experiment 1): 103750 cells/mL
Cells/mL ([3]; 2xEC50, 24 h, experiment 1): 125000 Cells/mL and 82500 Cells/mL
Counts ([3]; 2xEC50, 24 h, experiment 1): 50 and 33
AVG of cells/mL ([3]; 2xEC50, 24 h, experiment 2): 15000 cells/mL
Cells/mL ([3]; 2xEC50, 24 h, experiment 2): 15000 Cells/mL
Counts ([3]; 2xEC50, 24 h, experiment 2): 6
AVG of cells/mL ([3]; 2xEC50, 36 h, experiment 1): 103750 cells/mL
Cells/mL ([3]; 2xEC50, 36 h, experiment 1): 107500 Cells/mL and 100000 Cells/mL
Counts ([3]; 2xEC50, 36 h, experiment 1): 43 and 40
AVG of cells/mL ([3]; 2xEC50, 36 h, experiment 2): 7500 cells/mL
Cells/mL ([3]; 2xEC50, 48 h, experiment 1): 0 Cells/mL
Counts ([3]; 2xEC50, 48 h, experiment 1): 0
AVG of cells/mL ([3]; 2xEC50, 48 h, experiment 2): 0 cells/mL
Cells/mL ([3]; 2xEC50, 48 h, experiment 2): 0 Cells/mL
Counts ([3]; 2xEC50, 48 h, experiment 2): 0
effect on T. brucei bloodstream forms in culture (cidal/static) ([3]; 2× and 5× EC50): trypanocidal
AVG of cells/mL ([3]; 5xEC50, 2 h, experiment 1): 138750 cells/mL
Cells/mL ([3]; 5xEC50, 2 h, experiment 1): 132500 Cells/mL and 145000 Cells/mL
Counts ([3]; 5xEC50, 2 h, experiment 1): 53 and 58
AVG of cells/mL ([3]; 5xEC50, 2 h, experiment 2): 140000 cells/mL
Cells/mL ([3]; 5xEC50, 2 h, experiment 2): 137500 Cells/mL and 142500 Cells/mL
Counts ([3]; 5xEC50, 2 h, experiment 2): 55 and 57
AVG of cells/mL ([3]; 5xEC50, 4 h, experiment 1): 152500 cells/mL
Cells/mL ([3]; 5xEC50, 4 h, experiment 1): 150000 Cells/mL and 155000 Cells/mL
Counts ([3]; 5xEC50, 4 h, experiment 1): 62 and 60
AVG of cells/mL ([3]; 5xEC50, 4 h, experiment 2): 153750 cells/mL
Cells/mL ([3]; 5xEC50, 4 h, experiment 2): 160000 Cells/mL and 147500 Cells/mL
Counts ([3]; 5xEC50, 4 h, experiment 2): 59 and 64
AVG of cells/mL ([3]; 5xEC50, 6 h, experiment 1): 171250 cells/mL
Cells/mL ([3]; 5xEC50, 6 h, experiment 1): 167500 Cells/mL and 175000 Cells/mL
Counts ([3]; 5xEC50, 6 h, experiment 1): 67 and 70
AVG of cells/mL ([3]; 5xEC50, 6 h, experiment 2): 140000 cells/mL
Cells/mL ([3]; 5xEC50, 6 h, experiment 2): 155000 Cells/mL and 125000 Cells/mL
Counts ([3]; 5xEC50, 6 h, experiment 2): 62 and 50
AVG of cells/mL ([3]; 5xEC50, 8 h, experiment 1): 131250 cells/mL
Cells/mL ([3]; 5xEC50, 8 h, experiment 1): 130000 Cells/mL and 132500 Cells/mL
Counts ([3]; 5xEC50, 8 h, experiment 1): 52 and 53
AVG of cells/mL ([3]; 5xEC50, 8 h, experiment 2): 146250 cells/mL
Cells/mL ([3]; 5xEC50, 8 h, experiment 2): 142500 Cells/mL and 150000 Cells/mL
Counts ([3]; 5xEC50, 8 h, experiment 2): 57 and 60
AVG of cells/mL ([3]; 5xEC50, 12 h, experiment 1): 98750 cells/mL
Cells/mL ([3]; 5xEC50, 12 h, experiment 1): 107500 Cells/mL and 90000 Cells/mL
Counts ([3]; 5xEC50, 12 h, experiment 1): 43 and 36
AVG of cells/mL ([3]; 5xEC50, 12 h, experiment 2): 95000 cells/mL
Cells/mL ([3]; 5xEC50, 12 h, experiment 2): 92500 Cells/mL and 97500 Cells/mL
Counts ([3]; 5xEC50, 12 h, experiment 2): 37 and 39
AVG of cells/mL ([3]; 5xEC50, 24 h, experiment 1): 28750 cells/mL
Cells/mL ([3]; 5xEC50, 24 h, experiment 1): 27500 Cells/mL and 30000 Cells/mL
Counts ([3]; 5xEC50, 24 h, experiment 1): 11 and 12
AVG of cells/mL ([3]; 5xEC50, 24 h, experiment 2): 7500 cells/mL
Cells/mL ([3]; 5xEC50, 24 h, experiment 2): 7500 Cells/mL
Counts ([3]; 5xEC50, 24 h, experiment 2): 3
AVG of cells/mL ([3]; 5xEC50, 36 h, experiment 1): 18750 cells/mL
Cells/mL ([3]; 5xEC50, 36 h, experiment 1): 12500 Cells/mL and 25000 Cells/mL
Counts ([3]; 5xEC50, 36 h, experiment 1): 5 and 10
AVG of cells/mL ([3]; 5xEC50, 36 h, experiment 2): 1250 cells/mL
Cells/mL ([3]; 5xEC50, 48 h, experiment 1): 0 Cells/mL
Counts ([3]; 5xEC50, 48 h, experiment 1): 0
AVG of cells/mL ([3]; 5xEC50, 48 h, experiment 2): 0 cells/mL
Cells/mL ([3]; 5xEC50, 48 h, experiment 2): 0 Cells/mL
Counts ([3]; 5xEC50, 48 h, experiment 2): 0
